Measurements: patent US20050063903A1, “Combined use of cruciferous indoles and chelators for the treatment of papilloma virus-related conditions” (priority 2003, published 2005)

Assays:
[1] = log cumulative stability constant; cited from earlier work
[2] = log cumulative stability constant; cited from earlier work; remark: listed apart in the source
[3] = log cumulative stability constant; cited from earlier work; remark: listed apart in the source
Vaccinia virus = conditions: monkey kidney cells; cited from earlier work
CaSki cells = test: MTS mitochondrial function assay, loss of cell viability, 72 hour cultures; assay type: cell-based, human; conditions: for Pa Effect Alone: Pa 2.5 mM; for SY Effect Alone: SY 150 μM
Procedure: (§1) In vitro cell culture experiments were performed to investigate the induction of apoptosis by combinations of Diindolylmethane (DIM), Silybin (SY), Picolinic Acid (PA), Sodium Butyrate (BA), and Gallium Nitrate (Ga) in relevant cervical cancer cells. The cell lines CaSki (containing multiple copies of integrated HPV16 DNA), C33A (HPV negative with mutant p53), were utilized. Cells were maintained and assays for apoptosis induction performed as previously described (Chen D Z, Qi M, Auborn K J and Carter T H, Indole-3-carbinol and diindolylmethane induce apoptosis of human cervical cancer cells and in murine HPV 16-transgenic preneoplastic cervical epithelium. J Nutr. 2001 December;131(12):3294-302). Novel combinations of DIM and various Iron/Zinc chelators were tested to assess and document greater than additive (synergistic) apoptosis-related activity in controlled 72 hour cultures.
(§2) The primary assay for apoptosis-related loss of cell viability was the mitochondrial function assay [reduction of 3-(4,5-dimethylthiazol-2-yl)-5-(3-carboxymethoxyphenyl)-2-(4-sulfophenyl)-2H-tetrazolium (MTS)] using a MTS kit (Promega, Madison, Wis.). A minimum of 4 replicate wells per condition were studied and absorbance at […] of the solution in individual wells was determined with a multi-well plate reader. Data were analyzed by plotting the mean and SD of cell viability versus concentration of DIM, Iron/Zinc chelator or other growth inhibitors.
(§3) Using doses for each agent at or below the ID50 levels, synergistic, apoptosis-related, reductions in cell viability were documented for both combinations of DIM and Iron disrupting compounds and for combinations of DIM and Zinc disrupting compounds. Results showing percent reductions of cell viability using the MTS assay for individual agents, combined effects, and extent of synergism are summarized in the following tables and FIGS. 1-3.

[4] = cited from earlier work
C33A cells = test: MTS mitochondrial function assay, loss of cell viability, 72 hour cultures; assay type: cell-based, human
Procedure: as §1, §2, §3

[5] = tested on: papillomavirus altered cervical cancer cell lines; conditions: cell culture; cited from earlier work
tumor tissue = test: Ga-67 SPECT scan in patients with oropharyngeal squamous cell cancer; assay type: in vivo, human; conditions: 8 millicuries intravenous
Source text: In order to reduce radiation-related side effects use of both conventional radiation and Cyberknife radiosurgery (Accuray, Sunnyvale, Calif.) were employed together with intravenous and oral DIM and intravenous Ga-67 isotope and Gallium nitrate. This combined approach allowed reduction of the total radiation dose from 7000 cGy to 3500 cGy. On the first treatment day the patient underwent Computerized Tomography (CT) with intravenous omnipaque to enhance 3 dimensional definition of the tumor mass. This was followed by a Ga-67 SPECT scan involving administration of 8 millicuries of Gallium-67 Citrate isotope (Cardinal Health, Denver, Colo.).
On the first treatment day the patient, weighing 50 kg, underwent Computerized Tomography (CT) with intravenous omnipaque to enhance the 3 dimensional definition of the recurrent tumor mass. This was followed by a Ga-67 SPECT scan involving administration of 8 millicuries of Gallium-67 isotope (Cardinal Health, Denver, Colo.).

cervical dysplasia = conditions: treated for 3 months; cited from earlier work
[6] = tested on: virus infected skin cells (HIV-1, HSV-2); conditions: cited from earlier work

## c1ccc(-c2ccccn2)nc1 [BIP, 2,2′-bypryidyl]
[1]
  Logβ-Fe^III: 16.3
[2]
  Logβ-Zn^II: 13.2
[3]
  Logβ-Ga^II: 7.7
Vaccinia virus
  Concentrations shown to inhibit Vaccinia virus replication and ribonucleotide reductase: 60 to 80 µM

## CCCC(=O)[O-].[Na+] [BU, butyric acid sodium salt]
CaSki cells; BU 150 μM, Table IV
  BU Effect Alone: −15%

## CC(=O)N(O)CCCCCNC(=O)CCC(=O)N(O)CCCCCNC(=O)CCC(=O)N(O)CCCCCN [DFO, Desferrioxamine]
[1]
  Logβ-Fe^III: 30.5
[2]
  Logβ-Zn^II: 11.1
[3]
  Logβ-Ga^II: 27.6
[4]
  Lipid Solubility: Low

## c1ccc2c(Cc3c[nH]c4ccccc34)c[nH]c2c1 [DIM, 3,3′-diindolylmethane]
C33A cells; DIM 25 μM, reduction of cell viability
  DIM Effect Alone: −8%
CaSki cells; DIM 50 μM, Table II
  DIM Effect Alone: −26%
CaSki cells; DIM 75 μM, Table II
  DIM Effect Alone: −46%
CaSki cells; DIM 75 uM, Table III
  DIM Effect Alone: −19%
CaSki cells; DIM 75 μM, Table IV
  DIM Effect Alone: −46%
CaSki cells; DIM 75 uM, Table V
  DIM Alone 75 uM: −19%
CaSki cells; DIM 100 uM, Table III
  DIM Effect Alone: −21%
[5]
  Concentration required for activity (markers of apoptosis): 50 µM

## O=C(O)CN(CCN(CC(=O)O)CC(=O)O)CC(=O)O [EDTA, ethylenediaminetetraacetic acid]
[1]
  Logβ-Fe^III: 25.1
[2]
  Logβ-Zn^II: 16.5
[3]
  Logβ-Ga^II: 21.0

## O=C([O-])CC(O)(CC(=O)[O-])C(=O)[O-].[67Ga+3] [Gallium-67 Citrate]
Tumor tissue
  Uptake of Gallium by the tumor tissue in the scan: preferential uptake

## OCc1c[nH]c2ccccc12 [I3C, indole-3-carbinol]
Cervical dysplasia
  Women with partial improvement: about 50%

## Cc1c(O)c(=O)ccn1C [L1, 1,2-Dimethyl-3-hydroxypyrid-4-one]
[1]
  Logβ-Fe^III: 37.2
[2]
  Logβ-Zn^II: 13.5
[3]
  Logβ-Ga^II: 32.6
[4]
  Lipid Solubility: Moderate

## O=C(O)c1ccccn1 [Picolinic acid, pyridine-2-carboxylic acid]
CaSki cells; Table III line with DIM 75 uM
  Pa Effect Alone: −13%
CaSki cells; Table III line with DIM 100 uM
  Pa Effect Alone: −13%
[1]
  Logβ-Fe^III: 12.8
[2]
  Logβ-Zn^II: 12.9
[6]; U.S. Pat. No. 6,410,570
  Concentration required in cell culture when used alone: 3 mM
[6]; virus infected skin cells
  Concentration required for slowing of growth and diminished viability: 3,000 micromolar
[4]
  Lipid Solubility: High

## COc1cc(C2Oc3cc([C@H]4Oc5cc(O)cc(O)c5C(=O)[C@@H]4O)ccc3OC2CO)ccc1O (some centres unmarked) [Silybin, 3,5,7,-trihydroxy-2-[3-(4-hydroxy-3-methoxyphenil)-2-hydroxymethyl-1,4-benxodioxan-6-il]-chronan-4-one]
C33A cells; SY 150 μM
  SY Effect Alone: −54%
CaSki cells; Table II line with DIM 50 μM
  SY Effect Alone: −4%
CaSki cells; Table II line with DIM 75 μM
  SY Effect Alone: −8%
CaSki cells; Sy 150 uM, Table V
  Sy Alone 150 uM: −5%
[1]
  Logβ-Fe^III: 41.5
